Data as given in ChEMBL document CHEMBL2150993, “Substituted thiazoles VII. Synthesis and antitumor activity of certain 2-(substituted amino)-4-phenyl-1,3-thiazole analogs” (2012).

Columns and labels:
Format in all cases: functional
Conditions in all cases: at 10 µM
[1] = system: SR; assay: Growth inhibition of human SR cells after 48 hrs by cell counting analysis
[2] = system: OVCAR-4; assay: Growth inhibition of human OVCAR4 cells after 48 hrs by cell counting analysis
[3] = system: A549; assay: Growth inhibition of human A549 cells after 48 hrs by cell counting analysis
[4] = system: SW-620; assay: Growth inhibition of human SW620 cells after 48 hrs by cell counting analysis
[5] = system: UO-31; assay: Growth inhibition of human UO31 cells after 48 hrs by cell counting analysis
[6] = system: MCF7; assay: Growth inhibition of human MCF7 cells after 48 hrs by cell counting analysis
[7] = system: SF-539; assay: Growth inhibition of human SF539 cells after 48 hrs by cell counting analysis
[8] = system: CCRF-CEM; assay: Growth inhibition of human CCRF-CEM cells after 48 hrs by cell counting analysis
[9] = system: MOLT-4; assay: Growth inhibition of human MOLT4 cells after 48 hrs by cell counting analysis
[10] = system: SK-OV-3; assay: Growth inhibition of human SKOV3 cells after 48 hrs by cell counting analysis
[11] = system: HL-60; assay: Growth inhibition of human HL60 cells after 48 hrs by cell counting analysis
[12] = system: SK-MEL-2; assay: Growth inhibition of human SK-MEL-2 cells after 48 hrs by cell counting analysis
[13] = system: SNB-75; assay: Growth inhibition of human SNB75 cells after 48 hrs by cell counting analysis
[14] = system: ACHN; assay: Growth inhibition of human ACHN cells after 48 hrs by cell counting analysis
[15] = system: NCI-H23; assay: Growth inhibition of human NCI-H23 cells after 48 hrs by cell counting analysis
[16] = system: UACC-257; assay: Growth inhibition of human UACC257 cells after 48 hrs by cell counting analysis
[17] = system: OVCAR-3; assay: Growth inhibition of human OVCAR3 cells after 48 hrs by cell counting analysis
[18] = system: MDA-MB-231; assay: Growth inhibition of human MDA-MB-231 cells after 48 hrs by cell counting analysis
[19] = system: NCI-H226; assay: Growth inhibition of human NCI-H226 cells after 48 hrs by cell counting analysis
[20] = system: HCT-15; assay: Growth inhibition of human HCT15 cells after 48 hrs by cell counting analysis
[21] = system: PC-3; assay: Growth inhibition of human PC3 cells after 48 hrs by cell counting analysis
[22] = system: HT-29; assay: Growth inhibition of human HT-29 cells after 48 hrs by cell counting analysis
[23] = system: OVCAR-8; assay: Growth inhibition of human OVCAR8 cells after 48 hrs by cell counting analysis
[24] = system: RXF 393; assay: Growth inhibition of human RXF393 cells after 48 hrs by cell counting analysis
[25] = system: U-251; assay: Growth inhibition of human U251 cells after 48 hrs by cell counting analysis
[26] = Growth inhibition of human NCI-ADR-RES cells after 48 hrs by cell counting analysis
[27] = system: KM12; assay: Growth inhibition of human KM12 cells after 48 hrs by cell counting analysis
[28] = system: SN12C; assay: Growth inhibition of human SN12C cells after 48 hrs by cell counting analysis
[29] = system: MDA-MB-435; assay: Growth inhibition of human MDA-MB-435 cells after 48 hrs by cell counting analysis
[30] = system: BT-549; assay: Growth inhibition of human BT549 cells after 48 hrs by cell counting analysis
[31] = system: EKVX; assay: Growth inhibition of human EKVX cells after 48 hrs by cell counting analysis
[32] = system: SK-MEL-28; assay: Growth inhibition of human SK-MEL-28 cells after 48 hrs by cell counting analysis
[33] = system: SNB-19; assay: Growth inhibition of human SNB19 cells after 48 hrs by cell counting analysis
[34] = system: SF-295; assay: Growth inhibition of human SF295 cells after 48 hrs by cell counting analysis
[35] = system: HCT-116; assay: Growth inhibition of human HCT116 cells after 48 hrs by cell counting analysis
[36] = system: OVCAR-5; assay: Growth inhibition of human OVCAR5 cells after 48 hrs by cell counting analysis
[37] = system: SK-MEL-5; assay: Growth inhibition of human SK-MEL-5 cells after 48 hrs by cell counting analysis
[38] = system: MDA-MB-468; assay: Growth inhibition of human MDA-MB-468 cells after 48 hrs by cell counting analysis
[39] = system: NCI-H522; assay: Growth inhibition of human NCI-H522 cells after 48 hrs by cell counting analysis
[40] = system: T47D; assay: Growth inhibition of human T47D cells after 48 hrs by cell counting analysis
[41] = system: IGROV-1; assay: Growth inhibition of human IGROV1 cells after 48 hrs by cell counting analysis
[42] = system: HOP-62; assay: Growth inhibition of human HOP62 cells after 48 hrs by cell counting analysis
[43] = system: K562; assay: Growth inhibition of human K562 cells after 48 hrs by cell counting analysis
[44] = system: HCC 2998; assay: Growth inhibition of human HCC2998 cells after 48 hrs by cell counting analysis
[45] = system: TK-10; assay: Growth inhibition of human TK10 cells after 48 hrs by cell counting analysis
[46] = system: LOX IMVI; assay: Growth inhibition of human LOXIMVI cells after 48 hrs by cell counting analysis
[47] = system: RPMI-8226; assay: Growth inhibition of human RPMI8226 cells after 48 hrs by cell counting analysis
[48] = system: M14; assay: Growth inhibition of human M14 cells after 48 hrs by cell counting analysis
[49] = system: HOP-92; assay: Growth inhibition of human HOP92 cells after 48 hrs by cell counting analysis
[50] = Growth inhibition of human NCI-322M cells after 48 hrs by cell counting analysis
[51] = system: UACC-62; assay: Growth inhibition of human UACC62 cells after 48 hrs by cell counting analysis
[52] = system: SF-268; assay: Growth inhibition of human SF268 cells after 48 hrs by cell counting analysis
[53] = system: Malme-3M; assay: Growth inhibition of human MALME-3M cells after 48 hrs by cell counting analysis
[54] = system: CAKI-1; assay: Growth inhibition of human Caki1 cells after 48 hrs by cell counting analysis

## O=C(CN1CCN(c2ccccc2)CC1)Nc1nc(-c2ccc(Cl)cc2)cs1
[1]
  growth inhibition (GI): <10%
[2]
  growth inhibition (GI): <10%
[3]
  growth inhibition (GI): <10%
[4]
  growth inhibition (GI): <10%
[5]
  growth inhibition (GI): 34.4%
[6]
  growth inhibition (GI): <10%
[7]
  growth inhibition (GI): <10%
[8]
  growth inhibition (GI): <10%
[9]
  growth inhibition (GI): <10%
[10]
  growth inhibition (GI): <10%
[11]
  growth inhibition (GI): <10%
[12]
  growth inhibition (GI): <10%
[13]
  growth inhibition (GI): <10%
[14]
  growth inhibition (GI): <10%
[15]
  growth inhibition (GI): <10%
[16]
  growth inhibition (GI): <10%
[17]
  growth inhibition (GI): <10%
[18]
  growth inhibition (GI): <10%
[19]
  growth inhibition (GI): <10%
[20]
  growth inhibition (GI): <10%
[21]
  growth inhibition (GI): 21.1%
[22]
  growth inhibition (GI): <10%
[23]
  growth inhibition (GI): <10%
[24]
  growth inhibition (GI): <10%
[25]
  growth inhibition (GI): <10%
[26]
  growth inhibition (GI): <10%
[27]
  growth inhibition (GI): <10%
[28]
  growth inhibition (GI): <10%
[29]
  growth inhibition (GI): <10%
[30]
  growth inhibition (GI): <10%
[31]
  growth inhibition (GI): <10%
[32]
  growth inhibition (GI): <10%
[33]
  growth inhibition (GI): <10%
[34]
  growth inhibition (GI): <10%
[35]
  growth inhibition (GI): 16.4%
[36]
  growth inhibition (GI): <10%
[37]
  growth inhibition (GI): 11.7%
[38]
  growth inhibition (GI): <10%
[39]
  growth inhibition (GI): <10%
[40]
  growth inhibition (GI): 19%
[41]
  growth inhibition (GI): 10.4%
[42]
  growth inhibition (GI): 12.7%
[43]
  growth inhibition (GI): <10%
[44]
  growth inhibition (GI): <10%
[45]
  growth inhibition (GI): <10%
[46]
  growth inhibition (GI): <10%
[47]
  growth inhibition (GI): <10%
[48]
  growth inhibition (GI): <10%
[49]
  growth inhibition (GI): 60.2%
[50]
  growth inhibition (GI): <10%
[51]
  growth inhibition (GI): 20.3%
[52]
  growth inhibition (GI): <10%
[53]
  growth inhibition (GI): <10%
[54]
  growth inhibition (GI): <10%

## O=C(CN1CCN(c2ccccc2)CC1)Nc1nc(-c2ccc(Br)cc2)cs1
[1]
  growth inhibition (GI): <10%
[2]
  growth inhibition (GI): <10%
[3]
  growth inhibition (GI): 30.8%
[4]
  growth inhibition (GI): <10%
[5]
  growth inhibition (GI): 54.6%
[6]
  growth inhibition (GI): 41.2%
[7]
  growth inhibition (GI): <10%
[8]
  growth inhibition (GI): 22.2%
[9]
  growth inhibition (GI): 47.6%
[10]
  growth inhibition (GI): <10%
[11]
  growth inhibition (GI): 27.1%
[12]
  growth inhibition (GI): 14.5%
[13]
  growth inhibition (GI): 17.9%
[14]
  growth inhibition (GI): 15.7%
[15]
  growth inhibition (GI): 22.5%
[16]
  growth inhibition (GI): 13.7%
[17]
  growth inhibition (GI): <10%
[18]
  growth inhibition (GI): 22.2%
[19]
  growth inhibition (GI): 20.2%
[20]
  growth inhibition (GI): 26.1%
[21]
  growth inhibition (GI): 28.5%
[22]
  growth inhibition (GI): 37.7%
[23]
  growth inhibition (GI): 11.9%
[24]
  growth inhibition (GI): 13.6%
[25]
  growth inhibition (GI): <10%
[26]
  growth inhibition (GI): 30.9%
[27]
  growth inhibition (GI): <10%
[28]
  growth inhibition (GI): 23.7%
[29]
  growth inhibition (GI): 23.9%
[30]
  growth inhibition (GI): 13.6%
[31]
  growth inhibition (GI): 26.7%
[32]
  growth inhibition (GI): <10%
[33]
  growth inhibition (GI): 23.9%
[34]
  growth inhibition (GI): 20.9%
[35]
  growth inhibition (GI): 33.1%
[36]
  growth inhibition (GI): <10%
[37]
  growth inhibition (GI): 39.4%
[38]
  growth inhibition (GI): 55.6%
[39]
  growth inhibition (GI): 34.5%
[40]
  growth inhibition (GI): 41.8%
[41]
  growth inhibition (GI): 34.3%
[42]
  growth inhibition (GI): <10%
[43]
  growth inhibition (GI): 70.7%
[44]
  growth inhibition (GI): 21%
[45]
  growth inhibition (GI): 28.3%
[46]
  growth inhibition (GI): 11.6%
[47]
  growth inhibition (GI): 33.6%
[48]
  growth inhibition (GI): 15.7%
[49]
  growth inhibition (GI): <10%
[50]
  growth inhibition (GI): 20.5%
[51]
  growth inhibition (GI): 40.1%
[52]
  growth inhibition (GI): 17%
[53]
  growth inhibition (GI): 13.8%
[54]
  growth inhibition (GI): 33.5%

## CN1CCN(CCC(=O)Nc2nc(-c3ccc(Cl)cc3)cs2)CC1
[1]
  growth inhibition (GI): <10%
[2]
  growth inhibition (GI): <10%
[3]
  growth inhibition (GI): <10%
[4]
  growth inhibition (GI): <10%
[5]
  growth inhibition (GI): 48.6%
[6]
  growth inhibition (GI): 28%
[7]
  growth inhibition (GI): 14.8%
[8]
  growth inhibition (GI): 18.3%
[9]
  growth inhibition (GI): 51.8%
[10]
  growth inhibition (GI): <10%
[11]
  growth inhibition (GI): 20.6%
[12]
  growth inhibition (GI): <10%
[13]
  growth inhibition (GI): 26.8%
[14]
  growth inhibition (GI): <10%
[15]
  growth inhibition (GI): 11.2%
[16]
  growth inhibition (GI): <10%
[17]
  growth inhibition (GI): <10%
[18]
  growth inhibition (GI): 25.6%
[19]
  growth inhibition (GI): 28%
[20]
  growth inhibition (GI): 18.1%
[21]
  growth inhibition (GI): 15.3%
[22]
  growth inhibition (GI): 23.8%
[23]
  growth inhibition (GI): 15.6%
[24]
  growth inhibition (GI): 47.4%
[25]
  growth inhibition (GI): 16.5%
[26]
  growth inhibition (GI): 21.9%
[27]
  growth inhibition (GI): <10%
[28]
  growth inhibition (GI): 32.9%
[29]
  growth inhibition (GI): 15.4%
[30]
  growth inhibition (GI): 29.1%
[31]
  growth inhibition (GI): 11.9%
[32]
  growth inhibition (GI): <10%
[33]
  growth inhibition (GI): 19.7%
[34]
  growth inhibition (GI): <10%
[35]
  growth inhibition (GI): 13.3%
[36]
  growth inhibition (GI): <10%
[37]
  growth inhibition (GI): 46.1%
[38]
  growth inhibition (GI): 62.8%
[39]
  growth inhibition (GI): 31.1%
[40]
  growth inhibition (GI): 28.8%
[41]
  growth inhibition (GI): 18.4%
[42]
  growth inhibition (GI): 19.7%
[43]
  growth inhibition (GI): 22.4%
[44]
  growth inhibition (GI): 13.3%
[45]
  growth inhibition (GI): 20.2%
[46]
  growth inhibition (GI): 12.8%
[47]
  growth inhibition (GI): 17.6%
[48]
  growth inhibition (GI): 15.2%
[49]
  growth inhibition (GI): 42.2%
[50]
  growth inhibition (GI): <10%
[51]
  growth inhibition (GI): 15%
[52]
  growth inhibition (GI): 14.2%
[53]
  growth inhibition (GI): 15.4%
[54]
  growth inhibition (GI): 24.2%
